How the values were obtained:
[1] = system: patients with advanced cancer; test: Pittsburgh Sleep Quality Index (PSQI), Example 1 study; format: in vivo, human; settings: 100 mg oral daily + physical activity + nutritional counseling
Procedure: (§1) In this single arm study, 38 patients were intended for treatment with anamorelin for 6 weeks with an optional extension phase of 6 more weeks based on tolerability and safety and patient willingness. Patients received anamorelin 100 mg tablets and physical activity for 6 weeks for the intervention phase. Patients took 1 tablet orally while fasting (at least 1 hour before a meal).

[2] = system: patients with advanced cancer; test: Global Symptom Evaluation, Example 1 study; format: in vivo, human; settings: time point not clearly stated; 100 mg oral daily + physical activity + nutritional counseling
Procedure: as §1

[3] = system: patients with advanced cancer; test: Edmonton Symptom Assessment Scale (ESAS), Example 1 study; format: in vivo, human; settings: change from baseline, 100 mg oral daily + physical activity + nutritional counseling
Procedure: as §1
(§2) Secondary objectives of the study were to examine the effects of anamorelin and standardized physical activity and nutritional counseling on Health-related quality of life and patient reported outcomes as measured by The Multidimensional Fatigue Symptom Inventory-Short Form[MFSI-SF], PROMIS-Fatigue, Hospital Anxiety Depression Scale (HADS), Edmonton Symptom Assessment Scale (ESAS), Functional Assessment of Cancer Therapy (FACT-G), and its Functional Assessment of Anorexia/Cachexia Treatment (FAACT) subscale in these patients.
The ESAS measures 10 common symptoms in the past 24 hours (pain, fatigue, nausea, depression, anxiety, drowsiness, shortness of breath, appetite, sleep, and feeling of well-being); This questionnaire has been found valid and reliable in cancer populations (Bruera, Kuehn et al. 1991).

[4] = system: patients with advanced cancer; test: Physical performance tests (30 second chair stand test, 6-minute walk test), Example 1 study; format: in vivo, human; settings: Day 43 vs baseline, 100 mg oral daily + physical activity + nutritional counseling
Procedure: as §1
(§3) Exploratory objectives of the study were to explore the effects of anamorelin and standardized physical activity and nutritional counseling on muscle function (as measured by the 30 second chair stand test, 6 minute walk test, day time activity (accelerometer), body composition (as measured by INBODY), and Resting Energy Expenditure (measured by indirect calorimetry)
Measures: We used the 30 second chair stand test, six-minute walk test, and an accelerometer. A self-report exercise questionnaire, the Godin Leisure-Time physical activity questionnaire, was used to complement the objective measures. […]
Physical Performance Tests: The 30 second chair stand test, 6-minute walk test, and Godin Leisure-Time physical activity questionnaire were administered at baseline and on Day 43. The 30 second sit-to-stand task assessed lower body strength (Rikli and Jones 1999).
In the six-minute walk test, participants were asked to walk as fast and as far as they can for six minutes, and the distance walked was measured. […]

[5] = system: patients with advanced cancer; test: Adverse events, Example 1 study; format: in vivo, human; settings: 100 mg oral daily, 6 weeks with optional 6 week extension
Procedure: as §1

[6] = system: patients with advanced cancer; test: Daytime activity by accelerometer (actigraphy), Example 1 study; format: in vivo, human; settings: 100 mg oral daily + physical activity + nutritional counseling
Procedure: as §1, §3
Measures: We used the 30 second chair stand test, six-minute walk test, and an accelerometer. A self-report exercise questionnaire, the Godin Leisure-Time physical activity questionnaire, was used to complement the objective measures. IM Systems-three dimensional accelerometers (“Biotrainer-Pro”) was used to objectively measure physical activity.

IGF-1 = IGF-1 level, Example 1 study; format: in vivo, human; settings: Day 43, 28 evaluable patients, 100 mg oral daily + physical activity + nutritional counseling
Procedure: as §1

[7] = system: Patients With Non—Small Cell Lung Cancer and Cachexia; settings: study by Katakami and Uchino et al. 2018; cited from earlier work
[8] = system: patients with advanced cancer; test: FACIT-F fatigue subscale, single arm study of anamorelin (Example 1); format: in vivo, human; settings: for FACIT-F Fatigue Subscale, change, Mean (±SD): change from baseline, 100 mg oral daily + physical activity + nutritional counseling
From the text: This study was undertaken to isolate and evaluate anamorelin's effect on fatigue, energy expenditure, and other side effects of cancer in a cancer-stricken population, by including in the study population only those patients suffering significant levels of fatigue and inflammatory activity, excluding from the study population confounding factors such as depression and anemia, and controlling for a consistent level of nutrition and physical exercise.
as §1
• diagnosis of advanced cancer (metastatic or recurrent incurable solid tumors excluding prostate cancer) • fatigue on FACIT-F subscale of ≤34 on a 0 to 52 scale [in which 52=no fatigue and 0=worst possible fatigue] • CRP ≥3 mg/L* in the absence of any other more likely cause of increased CRP like an infection or an autoimmune disorder • unintentional weight loss of from 2% to 15% at any time within the previous 12 months • No evidence of moderate to severe depression as determined by a HADS depression score of ≤13 • Hemoglobin level ≥9 g/dL
A primary objective of the study was to examine the effects of anamorelin and standardized physical activity and nutritional counseling on changes in the Functional Assessment of […] (FACIT-F) subscale score at Day 43±3 days compared to baseline in patients with advanced cancer receiving oral anamorelin 100 mg daily and standardized physical activity and nutritional counseling.
FACIT-F is a well-validated QOL instrument in cancer patients (Cella, Tulsky et al. 1993). The 13-item fatigue subscale is a patient-rated assessment of intensity of fatigue and its related symptoms on a scale of 0 to 4.

[9] = system: patients with advanced cancer; test: FACT-G, Example 1 study; format: in vivo, human; settings: change from baseline, 100 mg oral daily + physical activity + nutritional counseling
Procedure: as §1, §2
The FACT-G is a 27-item compilation of general questions divided into four primary domains: Physical Well-Being, Social/Family Well-Being, Emotional Well-Being, and Functional Well-Being. It is appropriate for use in patients with any form of cancer, and extensions of it have been used and validated in other chronic illness conditions as well (Cella, Tulsky et al. 1993, Webster, Cella et al. 2003). The FACT-G is the first 2 pages of FACIT-F.

[10] = Weight and body composition (InBody), Example 1 study; format: in vivo, human; settings: Day 43, 28 evaluable patients, 100 mg oral daily + physical activity + nutritional counseling
Procedure: as §1, §3
Body Composition: All patients were assessed for lean body mass, skeletal muscle mass, extracellular water/total body water body, fat mass, body fat mass, and whole body phase angle evaluation (using the InBody body composition scale) (Dalal, Hui et al. 2012, Del Fabbro, Parsons et al. 2012, Yennurajalingam, Willey et al. 2012, Hui, Bansal et al. 2014). Resting energy expenditure was assessed at baseline and Day 43±3 days, and at the end of 6 weeks of the extension phase.

[11] = system: patients with advanced cancer; test: FAACT Anorexia/Cachexia subscale, Example 1 study; format: in vivo, human; settings: change from baseline, 100 mg oral daily + physical activity + nutritional counseling
Procedure: as §1, §2
The FAACT-Anorexia/Cachexia subscale is a 12-item symptom-specific subscale designed to measure patients' additional concerns about their anorexia/cachexia during the previous 7 days. The FAACT has internal consistency and a reliability coefficient (Cronbach's alpha) of 0.88 for the 12 components (Ribaudo, Cella et al. 2000). Patients rate the intensity of anorexia/cachexia and its related symptoms on a 0-4 scale like that used in the FACIT-F.

## CN(C)N(C)C(=O)[C@@]1(Cc2ccccc2)CCCN(C(=O)[C@@H](Cc2c[nH]c3ccccc23)NC(=O)C(C)(C)N)C1 [anamorelin]
[1]; Day 29, change from baseline
  PSQI (N = 15), change, Mean (±SD): −0.09 (±4.18),
[1]; Day 43, change from baseline
  PSQI (N = 15), change, Mean (±SD): −0.09 (±2.12),
[1]; Day 86, change from baseline
  PSQI (N = 15), change, Mean (±SD): −0.50 (±2.95),
[2]
  Global Symptom Evaluation: About the same N (%): 9 (36%)
  Global Symptom Evaluation: Better N (%): 13 (52%)
  Global Symptom Evaluation: Worse N (%): 3 (12%)
[3]; Day 15 (N = 28)
  ESAS Appetite, change, Mean (±SD): −0.43 (±3.06),
  ESAS-Fatigue, change, Mean (±SD): −0.68 (±2.87),
[3]; Day 29 (N = 28)
  ESAS Appetite, change, Mean (±SD): −1.04 (±3.19),
  ESAS-Fatigue, change, Mean (±SD): −0.75 (±2.70),
[3]; Day 43 (N = 28)
  ESAS Appetite, change, Mean (±SD): −0.56 (±3.07),
  ESAS-Fatigue, change, Mean (±SD): −0.81 (±2.87),
[3]; Day 86 (N = 8)
  ESAS Appetite, change, Mean (±SD): −0.13 (±3.09),
  ESAS-Fatigue, change, Mean (±SD): −1.25 (±2.43),
[4]
  Improvement in the physical performance outcomes: no significant improvement
[5]
  Severe (≥grade 3) adverse events related to the study drug: No severe (≥grade 3) adverse events
[6]
  Improvement in mean daytime activity (actigraphy activity measure): no significant improvement
IGF-1
  IGF-1 change from baseline, mean (SD): 36.50 (±48.76)
[7]
  Effect size for improvement in CRF: 0.057
[8]; 43-day measure
  FACIT-F increase from baseline, linear mixed model with time as categorical variable: 4.89
[8]; Day 15 (N = 28)
  FACIT-F Fatigue Subscale, change, Mean (±SD): 3.89 (±8.71),
[8]; Day 29 (N = 28)
  FACIT-F Fatigue Subscale, change, Mean (±SD): 6.32 (±9.53),
[8]; Day 86 (N = 8)
  FACIT-F Fatigue Subscale, change, Mean (±SD): 8.13 (±12.62),
[8]; this study, FACIT-F Day 43 (Cohen's D)
  Effect size for improvement in CRF: 0.37
[8]; time effect, FIG. 1
  FACIT-F average increase over time, linear mixed model: 0.11 units per day
[9]; Day 15 (N = 28)
  FACT-G Total, change, Mean (±SD): 0.59 (±9.17),
[9]; Day 29 (N = 28)
  FACT-G Total, change, Mean (±SD): 1.31 (±8.97),
[9]; Day 43 (N = 28)
  FACT-G Total, change, Mean (±SD): −1.10 (±10.71),
[9]; Day 86 (N = 8)
  FACT-G Total, change, Mean (±SD): 4.54 (±7.65),
[10]
  Lean Body Mass improvement from baseline, mean (SD): 1.54 (±1.85)
  Weight improvement from baseline, mean (SD): 1.81 (±2.63) kg
[11]; Day 15 (N = 28)
  FAACT-A/CS Total, change, Mean (±SD): 1.70 (±4.89),
[11]; Day 29 (N = 28)
  FAACT-A/CS Total, change, Mean (±SD): 4.53 (±5.54),

Reference: patent US20220401429A1, “USE OF ANAMORELIN TO TREAT CANCER-RELATED FATIGUE” (Helsinn Healthcare SA, priority 2021, published 2022)
